Columns and labels:
Assay in all cases: Eurofins kinase enzymatic radiometric assay
Format in all cases: biochemical
Design in all cases: purchased Eurofins
Conditions in all cases: Km of ATP, 9-point curve in duplicate
[1] = target: STK33 (Homo sapiens, UniProt Q9BYT3)
Source text: (§1) Due to our interest in the activity of GW296115 on several understudied IDG kinases, we collected full dose–response curves for all wild type kinases inhibited ≥ 75% in the DiscoverX panel that were offered by Eurofins. Having data in orthogonal formats is a powerful way to confirm inhibitory activity and adds rigor to our results. Eurofins has kinase enzymatic radiometric assays for 35 of the kinases on this list (Table S2) and a kinase enzymatic LANCE assay for one additional kinase (MAP2K5/MEK5).
(§2) Eurofins kinase enzymatic radiometric assays were carried out at the Km of ATP in dose–response (9-pt curve in duplicate) for each kinase for which it was offered.

[2] = target: DAPK1 (Homo sapiens, UniProt P53355)
Source text: as §1, §2

[3] = target: AURKB (Homo sapiens, UniProt Q96GD4)
Source text: as §1, §2

[4] = target: MAP3K11/MLK3 (Homo sapiens, UniProt Q16584)
Source text: as §1, §2

[5] = target: AXL (Homo sapiens, UniProt P30530)
Source text: as §1, §2

[6] = target: FLT3 (Homo sapiens, UniProt P36888)
Source text: as §1, §2

[7] = target: NUAK1/ARK5 (Homo sapiens, UniProt O60285)
Source text: as §1, §2

[8] = target: T1, BRSK1 (Homo sapiens, UniProt Q8TDC3)
T1 sequence (Q8TDC3 1-778): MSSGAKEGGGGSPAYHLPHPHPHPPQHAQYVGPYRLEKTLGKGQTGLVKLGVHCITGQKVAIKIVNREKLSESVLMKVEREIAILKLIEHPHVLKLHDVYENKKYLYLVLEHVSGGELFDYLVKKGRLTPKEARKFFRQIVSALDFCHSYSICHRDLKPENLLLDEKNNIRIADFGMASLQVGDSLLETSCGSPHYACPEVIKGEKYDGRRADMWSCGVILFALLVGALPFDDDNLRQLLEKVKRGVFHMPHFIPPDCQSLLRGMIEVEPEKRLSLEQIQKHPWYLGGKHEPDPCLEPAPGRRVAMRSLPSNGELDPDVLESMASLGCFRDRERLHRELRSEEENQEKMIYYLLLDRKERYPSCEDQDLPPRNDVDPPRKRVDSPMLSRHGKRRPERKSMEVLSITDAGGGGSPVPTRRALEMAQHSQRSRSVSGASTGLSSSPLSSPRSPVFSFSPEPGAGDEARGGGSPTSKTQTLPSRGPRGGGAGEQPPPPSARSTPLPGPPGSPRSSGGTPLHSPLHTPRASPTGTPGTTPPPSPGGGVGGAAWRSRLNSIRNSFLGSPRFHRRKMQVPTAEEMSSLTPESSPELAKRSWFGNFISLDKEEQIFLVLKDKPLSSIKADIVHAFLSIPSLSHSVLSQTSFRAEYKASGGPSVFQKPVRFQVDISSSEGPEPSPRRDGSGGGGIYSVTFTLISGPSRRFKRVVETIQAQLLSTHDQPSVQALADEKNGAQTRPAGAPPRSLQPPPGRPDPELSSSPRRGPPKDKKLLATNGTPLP
Source text: as §1, §2

[9] = target: TNIK (Homo sapiens, UniProt Q9UKE5)
Source text: as §1, §2

[10] = target: MAP3K9/MLK1 (Homo sapiens, UniProt P80192)
Source text: as §1, §2

[11] = target: DMPK (Homo sapiens, UniProt Q09013)
Source text: as §1, §2

[12] = target: STK17A/DRAK1 (Homo sapiens, UniProt Q9UEE5)
Source text: as §1, §2

[13] = target: MYLK/MLCK/smMLCK (Homo sapiens, UniProt Q15746)
Source text: as §1, §2

[14] = target: SGK3 (Homo sapiens, UniProt Q96BR1)
Source text: as §1, §2

[15] = target: PHKG1 (Homo sapiens, UniProt Q16816)
Source text: as §1, §2

[16] = target: PIM3 (Homo sapiens, UniProt Q86V86)
Source text: as §1, §2

[17] = target: MAP4K4/HGK (Homo sapiens, UniProt O95819)
Source text: as §1, §2

[18] = target: DAPK2 (Homo sapiens, UniProt Q9UIK4)
Source text: as §1, §2

[19] = target: PDGFRA (Homo sapiens, UniProt P16234)
Source text: as §1, §2

[20] = target: MINK1/MINK (Homo sapiens, UniProt Q8N4C8)
Source text: as §1, §2

[21] = target: T2, STK17B/DRAK2 (Homo sapiens, UniProt O94768)
T2 sequence (O94768 1-372): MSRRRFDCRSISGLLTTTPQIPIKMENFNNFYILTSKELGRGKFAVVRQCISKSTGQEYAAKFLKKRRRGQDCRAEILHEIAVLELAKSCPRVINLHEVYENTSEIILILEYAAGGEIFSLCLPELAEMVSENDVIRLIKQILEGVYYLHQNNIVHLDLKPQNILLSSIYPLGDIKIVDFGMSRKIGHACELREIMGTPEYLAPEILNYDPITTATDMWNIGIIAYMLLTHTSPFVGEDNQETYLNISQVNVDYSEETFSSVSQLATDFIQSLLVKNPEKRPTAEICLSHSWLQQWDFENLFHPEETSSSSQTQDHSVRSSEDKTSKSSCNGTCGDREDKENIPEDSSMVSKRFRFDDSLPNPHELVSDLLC
Source text: as §1, §2

[22] = target: DCLK3/DCAMKL3 (Homo sapiens, UniProt Q9C098)
Source text: as §1, §2

Sequence of MAP3K11/MLK3 (Q16584 whole entry): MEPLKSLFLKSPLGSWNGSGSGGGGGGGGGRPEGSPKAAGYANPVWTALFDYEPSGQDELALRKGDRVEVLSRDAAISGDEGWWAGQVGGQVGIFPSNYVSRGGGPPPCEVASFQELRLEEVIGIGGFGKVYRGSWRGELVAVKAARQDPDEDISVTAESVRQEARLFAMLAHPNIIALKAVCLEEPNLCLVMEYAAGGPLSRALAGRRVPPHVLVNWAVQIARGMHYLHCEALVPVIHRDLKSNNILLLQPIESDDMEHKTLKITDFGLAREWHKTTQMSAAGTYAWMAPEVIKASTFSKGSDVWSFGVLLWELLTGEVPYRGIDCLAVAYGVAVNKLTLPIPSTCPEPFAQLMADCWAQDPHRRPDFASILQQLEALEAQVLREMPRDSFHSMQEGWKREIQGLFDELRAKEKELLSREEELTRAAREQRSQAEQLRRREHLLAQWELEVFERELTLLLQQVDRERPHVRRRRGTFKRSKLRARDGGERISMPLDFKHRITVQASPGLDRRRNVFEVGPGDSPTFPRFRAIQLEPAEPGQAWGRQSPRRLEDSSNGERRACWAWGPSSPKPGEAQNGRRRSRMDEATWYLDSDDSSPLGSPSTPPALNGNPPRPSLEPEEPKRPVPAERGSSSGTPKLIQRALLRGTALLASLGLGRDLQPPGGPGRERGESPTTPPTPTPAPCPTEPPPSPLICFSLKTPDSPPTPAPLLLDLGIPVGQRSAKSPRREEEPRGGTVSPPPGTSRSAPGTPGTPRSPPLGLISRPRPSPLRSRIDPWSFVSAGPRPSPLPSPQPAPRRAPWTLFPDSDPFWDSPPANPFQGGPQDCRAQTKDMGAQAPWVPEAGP
Sequence of MINK1/MINK (Q8N4C8 whole entry): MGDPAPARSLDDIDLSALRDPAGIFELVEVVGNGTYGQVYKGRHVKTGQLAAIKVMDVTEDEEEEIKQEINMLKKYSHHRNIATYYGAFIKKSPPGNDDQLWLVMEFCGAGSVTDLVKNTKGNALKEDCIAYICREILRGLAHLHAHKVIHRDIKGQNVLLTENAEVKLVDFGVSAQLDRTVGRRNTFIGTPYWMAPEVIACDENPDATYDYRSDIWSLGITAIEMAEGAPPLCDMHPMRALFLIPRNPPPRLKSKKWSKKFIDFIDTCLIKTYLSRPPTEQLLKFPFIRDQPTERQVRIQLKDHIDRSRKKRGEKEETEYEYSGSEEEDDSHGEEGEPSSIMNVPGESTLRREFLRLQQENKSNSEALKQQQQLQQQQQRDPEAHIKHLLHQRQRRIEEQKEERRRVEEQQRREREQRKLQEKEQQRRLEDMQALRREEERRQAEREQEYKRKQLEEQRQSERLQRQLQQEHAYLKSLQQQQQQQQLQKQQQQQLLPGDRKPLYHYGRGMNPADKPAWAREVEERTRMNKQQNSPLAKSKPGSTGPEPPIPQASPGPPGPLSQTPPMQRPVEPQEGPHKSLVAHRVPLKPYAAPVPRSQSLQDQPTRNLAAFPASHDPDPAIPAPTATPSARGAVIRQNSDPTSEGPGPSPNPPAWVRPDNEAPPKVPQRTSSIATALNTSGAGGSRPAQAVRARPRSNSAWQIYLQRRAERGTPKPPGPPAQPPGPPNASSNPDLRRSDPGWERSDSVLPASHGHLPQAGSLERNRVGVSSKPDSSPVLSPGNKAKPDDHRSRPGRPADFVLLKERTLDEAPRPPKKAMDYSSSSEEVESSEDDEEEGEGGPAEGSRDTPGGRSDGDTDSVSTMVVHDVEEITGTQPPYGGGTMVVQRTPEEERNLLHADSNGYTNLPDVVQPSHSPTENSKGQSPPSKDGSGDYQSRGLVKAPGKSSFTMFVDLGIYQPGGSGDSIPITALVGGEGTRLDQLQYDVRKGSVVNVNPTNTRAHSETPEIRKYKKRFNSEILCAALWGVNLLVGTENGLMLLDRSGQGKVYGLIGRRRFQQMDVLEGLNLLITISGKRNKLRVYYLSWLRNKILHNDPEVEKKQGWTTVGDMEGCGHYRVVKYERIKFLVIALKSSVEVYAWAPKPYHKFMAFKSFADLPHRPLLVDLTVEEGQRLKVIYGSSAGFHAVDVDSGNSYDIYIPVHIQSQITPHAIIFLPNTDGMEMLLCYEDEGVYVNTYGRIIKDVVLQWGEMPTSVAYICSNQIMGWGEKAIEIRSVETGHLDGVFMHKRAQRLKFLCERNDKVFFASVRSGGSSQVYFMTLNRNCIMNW
Sequence of DCLK3/DCAMKL3 (Q9C098 whole entry): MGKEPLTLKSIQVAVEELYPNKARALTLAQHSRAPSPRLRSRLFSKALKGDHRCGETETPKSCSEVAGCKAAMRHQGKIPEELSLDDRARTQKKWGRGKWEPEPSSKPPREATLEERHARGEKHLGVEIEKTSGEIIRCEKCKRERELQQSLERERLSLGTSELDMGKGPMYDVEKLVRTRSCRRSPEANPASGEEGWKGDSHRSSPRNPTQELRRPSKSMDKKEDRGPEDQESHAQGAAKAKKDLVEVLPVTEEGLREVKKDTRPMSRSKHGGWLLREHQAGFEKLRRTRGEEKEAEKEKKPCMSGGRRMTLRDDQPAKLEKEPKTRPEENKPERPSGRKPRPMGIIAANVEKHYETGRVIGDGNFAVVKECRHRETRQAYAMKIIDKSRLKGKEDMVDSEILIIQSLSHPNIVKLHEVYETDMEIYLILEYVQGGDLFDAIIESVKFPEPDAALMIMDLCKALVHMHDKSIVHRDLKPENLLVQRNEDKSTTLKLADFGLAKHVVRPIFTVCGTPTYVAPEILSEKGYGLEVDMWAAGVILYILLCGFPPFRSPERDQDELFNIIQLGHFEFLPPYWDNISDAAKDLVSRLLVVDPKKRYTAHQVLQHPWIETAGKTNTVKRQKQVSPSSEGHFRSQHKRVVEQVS
Sequence of DMPK (Q09013 whole entry): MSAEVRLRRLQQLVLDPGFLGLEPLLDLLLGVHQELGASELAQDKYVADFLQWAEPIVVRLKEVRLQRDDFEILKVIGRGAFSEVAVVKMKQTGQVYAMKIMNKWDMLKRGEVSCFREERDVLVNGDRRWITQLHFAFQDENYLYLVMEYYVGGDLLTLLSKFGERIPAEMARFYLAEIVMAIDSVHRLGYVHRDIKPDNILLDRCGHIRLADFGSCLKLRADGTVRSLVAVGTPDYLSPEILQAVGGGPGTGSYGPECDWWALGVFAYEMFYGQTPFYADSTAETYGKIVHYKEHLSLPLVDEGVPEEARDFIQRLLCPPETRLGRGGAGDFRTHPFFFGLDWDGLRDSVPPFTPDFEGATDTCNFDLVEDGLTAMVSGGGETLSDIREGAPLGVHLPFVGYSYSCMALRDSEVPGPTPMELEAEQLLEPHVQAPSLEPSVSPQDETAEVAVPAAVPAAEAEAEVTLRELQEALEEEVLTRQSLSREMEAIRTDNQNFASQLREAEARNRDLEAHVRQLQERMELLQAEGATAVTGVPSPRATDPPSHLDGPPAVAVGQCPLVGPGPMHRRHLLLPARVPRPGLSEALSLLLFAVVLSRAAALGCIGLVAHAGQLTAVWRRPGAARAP
Sequence of PDGFRA (P16234 24-1089): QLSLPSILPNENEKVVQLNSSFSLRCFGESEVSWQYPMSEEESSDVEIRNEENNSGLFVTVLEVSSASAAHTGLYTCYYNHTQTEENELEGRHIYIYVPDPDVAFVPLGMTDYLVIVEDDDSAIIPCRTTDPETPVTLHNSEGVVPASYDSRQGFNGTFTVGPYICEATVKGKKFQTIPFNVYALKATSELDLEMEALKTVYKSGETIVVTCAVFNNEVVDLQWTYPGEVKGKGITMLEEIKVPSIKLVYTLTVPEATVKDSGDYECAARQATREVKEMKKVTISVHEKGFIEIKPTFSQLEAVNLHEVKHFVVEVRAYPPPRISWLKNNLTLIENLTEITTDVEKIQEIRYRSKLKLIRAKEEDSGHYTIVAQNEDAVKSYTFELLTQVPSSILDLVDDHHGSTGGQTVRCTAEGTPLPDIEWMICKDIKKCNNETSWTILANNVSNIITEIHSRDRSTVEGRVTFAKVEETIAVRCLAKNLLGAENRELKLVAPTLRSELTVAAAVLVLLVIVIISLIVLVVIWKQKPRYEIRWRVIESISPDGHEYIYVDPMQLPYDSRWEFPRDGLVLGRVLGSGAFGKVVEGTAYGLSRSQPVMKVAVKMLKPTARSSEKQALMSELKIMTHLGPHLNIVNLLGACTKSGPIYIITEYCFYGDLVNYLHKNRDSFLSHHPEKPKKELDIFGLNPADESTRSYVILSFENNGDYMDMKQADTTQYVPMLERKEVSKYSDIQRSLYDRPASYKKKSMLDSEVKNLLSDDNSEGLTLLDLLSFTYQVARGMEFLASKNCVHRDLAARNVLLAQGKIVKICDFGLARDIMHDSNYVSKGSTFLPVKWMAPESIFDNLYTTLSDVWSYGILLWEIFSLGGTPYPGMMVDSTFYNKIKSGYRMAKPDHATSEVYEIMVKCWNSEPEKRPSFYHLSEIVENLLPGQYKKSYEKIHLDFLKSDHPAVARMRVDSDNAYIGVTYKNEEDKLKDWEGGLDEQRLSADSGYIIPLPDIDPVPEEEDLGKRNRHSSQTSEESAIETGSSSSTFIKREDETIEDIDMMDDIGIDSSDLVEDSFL
Sequence of DAPK2 (Q9UIK4 whole entry): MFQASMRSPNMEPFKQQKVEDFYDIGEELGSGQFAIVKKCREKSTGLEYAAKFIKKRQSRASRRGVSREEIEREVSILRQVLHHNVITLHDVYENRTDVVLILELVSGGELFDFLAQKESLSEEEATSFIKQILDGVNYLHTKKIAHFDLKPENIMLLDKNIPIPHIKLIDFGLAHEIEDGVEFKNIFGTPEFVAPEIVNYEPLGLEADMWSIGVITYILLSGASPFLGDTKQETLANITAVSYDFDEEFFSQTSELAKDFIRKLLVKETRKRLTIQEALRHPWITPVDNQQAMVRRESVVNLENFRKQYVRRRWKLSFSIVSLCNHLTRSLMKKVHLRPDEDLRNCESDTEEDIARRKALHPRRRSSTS

## COc1ccc2[nH]c3c4[nH]c5ccc(OC)cc5c4c4c(c3c2c1)C(=O)NC4=O [GW296115]
[1]
  IC50: 110 nM
[2]
  IC50: > 10 µM
[3]
  IC50: 94 nM
[4]
  IC50: 1.5 nM
[5]
  IC50: 160 nM
[6]
  IC50: 37 nM
[7]
  IC50: 15 nM
[8]
  IC50: 21 nM
[9]
  IC50: 10 nM
[10]
  IC50: 26 nM
[11]
  IC50: > 10 µM
[12]
  IC50: 28 nM
[13]
  IC50: 49 nM
[14]
  IC50: > 10 µM
[15]
  IC50: 20 nM
[16]
  IC50: 89 nM
[17]
  IC50: 29 nM
[18]
  IC50: 21 nM
[19]
  IC50: 710 nM
[20]
  IC50: 35 nM
[21]
  IC50: 5.5 nM
[22]
  IC50: 89 nM
